Patent US20230150951A1, “2,5- OR 2,6-DISUBSTITUTED HYDROQUINONE DERIVATIVES WITH AT LEAST ONE CARBOXY, SULFO OR AMIDO GROUP USEFUL AS MEDICAMENTS” (OM PHARMA SA, priority 2020, published 2023)

Legend:
Assay type in all cases: cell-based
[1] = system: Human neutrophils; assay: Inhibition of ROS production in human neutrophils (isoluminol chemiluminescence); settings: Homo sapiens, Neutrophil, fMLP+TNF-α stimulated PMN
How it was run: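 Neutrophils from healthy-donor buffy coats (3×10^6/ml in HBSS with Ca/Mg) pre-incubated 30 min at 37° C with compound (0.1–10 μM), primed with TNF-α 20 ng/ml for 10 min, then added to fibrinogen-coated wells. Isoluminol/HRP chemiluminescence recorded every 25 sec for 250 sec after fMLP (1 μM), background-subtracted.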

[2] = system: Human neutrophils; assay: Neutrophil adhesion under static conditions; settings: fMLP-stimulated adhesion to fibrinogen; method: 40 μM and 80 μM, concentration of the value not stated
How it was run: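 Donor buffy-coat neutrophils (3×10^6/ml, PBS with Ca/Mg, 10% FCS, pH 7.2) preincubated 30 min at 37° C with 40 μM or 80 μM compound, then stimulated 1 min at 37° C with 1 nM fMLP on fibrinogen-coated glass. Adherent cells fixed and counted by computer; mean ± SD, unpaired t-test.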

[3] = target: T1, FGF-1 (Homo sapiens, UniProt P05230); assay: FGF-1 induced sprouting of HUVEC, spheroid-based cellular angiogenesis assay; settings: FGF-1 25 ng/mL preincubated with compound, 24 h
T1 construct: purchased Peprotech 100-17A
T1 sequence (P05230 whole entry): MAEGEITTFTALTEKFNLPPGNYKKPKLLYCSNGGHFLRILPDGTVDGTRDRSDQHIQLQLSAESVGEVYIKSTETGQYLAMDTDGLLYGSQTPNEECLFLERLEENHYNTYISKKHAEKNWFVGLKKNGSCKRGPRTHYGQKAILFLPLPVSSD
How it was run: (§1)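 Spheroids of 400 HUVEC (passage 3–4), embedded in collagen gel, were stimulated with FGF-1, FGF-2 or VEGF-A (final 25 ng/mL) preincubated 30 min at 37°C with compound (final 1.56–100 μM).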

[4] = target: T2, FGF-2 (Homo sapiens, UniProt P09038); assay: FGF-2 induced sprouting of HUVEC, spheroid-based cellular angiogenesis assay; settings: FGF-2 25 ng/mL preincubated with compound, 24 h
T2 construct: purchased Peprotech 100-18C
T2 sequence (P09038 134-288): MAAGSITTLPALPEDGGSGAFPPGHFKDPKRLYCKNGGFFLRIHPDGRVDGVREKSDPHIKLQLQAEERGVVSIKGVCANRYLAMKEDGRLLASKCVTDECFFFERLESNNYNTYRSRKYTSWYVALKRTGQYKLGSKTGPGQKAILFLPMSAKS
How it was run: as §1

[5] = target: T3, VEGFR-2 (Homo sapiens, UniProt P35968); assay: VEGF-165 induced phosphorylation of VEGF-Receptor on HUVEC; settings: HUVEC preincubated 60 min, VEGF165 25 ng/mL 2 min; read-out: VEGFR-Phosphorylation inhibition IC50
T3 construct: endogenous in cells; host or cells: primary HUVEC
T3 sequence (P35968 20-1356): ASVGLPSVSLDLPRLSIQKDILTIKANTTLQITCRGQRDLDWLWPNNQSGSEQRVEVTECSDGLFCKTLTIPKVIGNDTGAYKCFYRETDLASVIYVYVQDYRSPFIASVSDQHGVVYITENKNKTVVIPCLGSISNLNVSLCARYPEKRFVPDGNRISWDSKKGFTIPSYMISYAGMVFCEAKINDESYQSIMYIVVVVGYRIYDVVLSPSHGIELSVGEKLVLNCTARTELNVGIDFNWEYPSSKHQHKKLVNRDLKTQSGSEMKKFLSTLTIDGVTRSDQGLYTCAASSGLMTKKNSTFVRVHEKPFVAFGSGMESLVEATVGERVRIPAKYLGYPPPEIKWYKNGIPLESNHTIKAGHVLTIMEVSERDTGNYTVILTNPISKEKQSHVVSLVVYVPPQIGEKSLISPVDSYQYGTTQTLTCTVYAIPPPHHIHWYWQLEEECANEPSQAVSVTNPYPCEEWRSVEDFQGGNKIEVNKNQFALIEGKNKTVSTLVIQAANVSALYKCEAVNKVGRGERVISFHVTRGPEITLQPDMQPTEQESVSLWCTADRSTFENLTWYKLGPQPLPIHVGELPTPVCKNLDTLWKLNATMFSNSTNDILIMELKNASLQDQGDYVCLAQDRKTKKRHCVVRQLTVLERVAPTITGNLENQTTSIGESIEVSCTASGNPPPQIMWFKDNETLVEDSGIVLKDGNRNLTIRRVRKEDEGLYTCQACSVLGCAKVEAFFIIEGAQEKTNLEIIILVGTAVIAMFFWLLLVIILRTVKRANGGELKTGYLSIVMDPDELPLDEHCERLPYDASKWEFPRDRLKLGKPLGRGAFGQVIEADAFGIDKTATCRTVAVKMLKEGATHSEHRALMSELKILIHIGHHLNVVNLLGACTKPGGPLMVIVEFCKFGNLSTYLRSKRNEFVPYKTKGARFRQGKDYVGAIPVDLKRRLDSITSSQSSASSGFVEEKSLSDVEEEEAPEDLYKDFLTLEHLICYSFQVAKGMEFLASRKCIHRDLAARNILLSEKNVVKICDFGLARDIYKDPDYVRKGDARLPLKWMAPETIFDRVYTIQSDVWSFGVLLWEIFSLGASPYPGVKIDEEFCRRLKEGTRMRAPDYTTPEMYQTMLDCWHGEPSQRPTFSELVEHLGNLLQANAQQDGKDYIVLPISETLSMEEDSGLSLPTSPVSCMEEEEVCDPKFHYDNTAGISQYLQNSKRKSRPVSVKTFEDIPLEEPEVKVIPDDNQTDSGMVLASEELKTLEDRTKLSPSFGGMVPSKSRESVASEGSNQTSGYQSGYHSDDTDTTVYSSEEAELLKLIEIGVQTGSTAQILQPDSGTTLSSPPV

[6] = target: T4, VEGF-A (Homo sapiens, UniProt P15692); assay: VEGF-A induced sprouting of HUVEC, spheroid-based cellular angiogenesis assay; settings: VEGF-A 25 ng/mL preincubated with compound, 24 h, read-out: VEGF-A1 IC50
T4 construct: purchased ProQinase GmbH
T4 sequence (P15692 27-191 isoform P15692-4): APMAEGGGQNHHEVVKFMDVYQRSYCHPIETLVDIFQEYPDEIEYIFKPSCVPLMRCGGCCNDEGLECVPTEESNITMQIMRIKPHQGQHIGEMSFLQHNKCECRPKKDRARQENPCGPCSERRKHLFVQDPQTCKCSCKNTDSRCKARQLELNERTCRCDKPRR
Protocol: Aim of this in vitro method is to assess compounds effects on FGF-2, FGF-1, or VEGF-A induced sprouting of human umbilical vein endothelial cells (HUVEC) in the spheroid-based cellular angiogenesis assay. Before adding the growth factors to the cells, they were preincubated with the compound. Sunitinib was tested as a control (without preincubation).
IC50 values determined for the tested compounds are expressed in microM [μM] and the values for the inhibition of FGF-1, FGF2 and VEGF-A induced growth (sprouting) are listed after each compound in the examples after chemical characterization.
Sprouting test was performed on the compounds dissolved in DMSO to reach 100-fold concentrated stock solutions and dissolved in culture media. Sunitinib as reference compound was provided by ProQinase GmbH. Growth factors were purchased from rhFGF-basic (FGF-2), Peprotech, New Jersey, USA, #100-18C, Lot #0415571; rhFGF-acidic (FGF-1), Peprotech, New Jersey, USA, #100-17A, Lot #031207; hVEGF-A165 (ProQinase GmbH, Freiburg, Germany; 05.02.2010) were used for stimulation of HUVEC cells growth.
Test system: Endothelial cells from human umbilical vein (HUVEC) from pooled donors were stored frozen with 70% medium, 20% FCS, 10% DMSO at about 1×10^6 cells/ampoule. HUVEC cells, primary human umbilical vein endothelial cells (PromoCell, Heidelberg, Germany), were used after passage 3 to 4. Morphology of the cells are adherent, cobblestone-like growing as monolayer and were cultured in endothelial cell growth and basal medium (ECGM/ECBM, PromoCell). The subculture was split 1:3; every 3-5 days, seed out at ca. 1×10^4 cells/cm^2 and incubated at 37° C. with 5% CO2 with a doubling time 24-48 hours
Dilution of test compounds: 100× concentrated solutions (concerning to the final assay concentrations) of each test compound were prepared with the appropriate solvent (in DMSO or in water). These 100×compound solutions were further diluted in endothelial cell growth and basal medium (ECBM) 1:7.5 to get a 13.33× concentrated solution. 75 μl of the 13.33×solution was subsequently mixed with 25 μl of 40× concentrated stimulus (solved in ECBM), resulting in a 10×concentrated stimulus/compound mixture. This mixture (100 μl) was incubated for 30 min at 37° C. and then added to 900 μl gel, containing the HUVEC spheroids (resulting in the final assay concentration).
Test method: the experiments were pursued in modification of the originally published protocol (Korff and Augustin: J Cell Sci 112: 3249-58, 1999). In brief, spheroids were prepared as described (Korff and Augustin: J Cell Biol 143: 1341-52, 1998) by pipetting 400 HUVEC in a hanging drop on plastic dishes to allow overnight spheroid aggregation. 50 HUVEC spheroids were then seeded in 0.9 ml of a collagen gel and pipetted into individual wells of a 24 well plate to allow polymerization. The test compounds were preincubated with the growth factors (FGF-1, FGF-2 or VEGF-A final concentration 25 ng/mL) in a 10-fold concentrated solution and subsequently, 100 μl of this solution was added on top of the polymerized gel. All compounds were diluted in solvent (DMSO or water) as 100×stocks first (which means 100×stocks of each final assay concentration were prepared in solvent). Subsequently, these stocks were further diluted in medium (resulting in the 13.33×stocks of each final assay concentration) with final concentrations tested: 100, 50, 25, 12.5, 6.25, 3.13 and 1.56×10^−6 M). Plates were incubated at 37° C. for 24 hours and fixed by adding 4% PFA (Roth, Karlsruhe, Germany).
Quantification of growth factor inhibition: sprouting intensity of HUVEC spheroids treated with the growth factor and the inhibitors were quantitated by an image analysis system determining the cumulative sprout length per spheroid (CSL).

Compound	IC50 [1] [µM]	IC50 [3] [µM]	IC50 [4] [µM]	IC50 [5] [µM]	IC50 [6] [µM]	inhibition at 0.3 µM [1] [%]	Neutrophil adhesion inhibition [2] [%]
O=C(O)Cc1ccccc1NC(=O)c1cc(O)cc(C(=O)O)c1O [IIa-034a, 3-(2-(carboxymethyl)phenylaminocarbonyl)-2,5-dihydroxybenzoic acid]		22	5.7	≥ 100	86	69.2	26.58
O=C(O)c1ccc(NC(=O)c2cc(O)cc(C(=O)O)c2O)cc1C(=O)O [IIa-014a, 4-(3-carboxy-2,5-dihydroxybenzamido)phthalic acid]		40	61	17.6	91	73.9	21.5
O=C(O)c1cc(O)c(C(=O)NCCc2ccc(O)c(O)c2)cc1O [Ia-035a-2, 4-(2-(3,4-Dihydroxyphenyl)ethylaminocarbonyl)-2,5-dihydroxybenzoic acid]	1.1	10	65	10	109	58.8	21.5
O=C(O)c1cc(NC(=O)c2cc(O)c(C(=O)O)cc2O)ccc1O [Ia-004a, 4-(3-carboxy-4-hydroxyphenylaminocarbonyl)-2,5-dihydroxybenzoic acid]		32	15	7.7	28	64.6	28.38

More lines, main results first:

IC50 [1] [µM]	IC50 [3] [µM]	IC50 [4] [µM]	IC50 [5] [µM]	IC50 [6] [µM]	Compound	inhibition at 0.3 µM [1] [%]	Neutrophil adhesion inhibition [2] [%]
2.28	79	14	≥ 100	102	O=C(O)Cc1ccccc1NC(=O)c1cc(O)c(C(=O)O)cc1O [Ia-034a, 4-(2-(carboxymethyl)phenylaminocarbonyl)-2,5-dihydroxybenzoic acid]	49.1	15
	≥ 200	≥ 200	3.8	≥ 200	CCOC(=O)c1cc(O)c(C(=O)Nc2ccccc2-c2nnn[nH]2)cc1O [Ia-001a-Tz-E1, ethyl 4-(2-(1H-tetrazol-5-yl)phenylaminocarbonyl)-2,5-dihydroxybenzoate]	76	98.88
	35	110	≥ 100	≥ 200	O=C(O)c1cc(O)c(C(=O)Nc2cccc(C(=O)O)c2C(=O)O)cc1O [Ia-011a, 3-(4-carboxy-2,5-dihydroxybenzamido)phthalic acid]	57.7	42.32
